# Several values for one entry are separate records, joined by “and”; a condition that tells them apart may be missing. Equal values may be shown once. Read-outs that look alike come from different tables or passages of the source.
# Columns and labels:
# [1] = Dog PK study #2 (Compound A IV, HPBCD formulation); type: in vivo, beagle dogs
# Procedure: For Dog PK study #2, a solution of Compound A was prepared in HPBCD (20% solution w/v)/DMSO (99/1) with a concentration of 0.5 mg/mL (Table 2B). The Compound A solution was administered to animals intravenously (IV), and animals were monitored over a 24 h period (Table 3C). Body weight was recorded prior to dosing, and detailed clinical observations were made prior to dosing and throughout the study, as needed.
# Blood samples (~0.3 mL) were collected according to a schedule (shown below) by venipuncture of peripheral veins except for the dosing vein, and EDTA-K2 was used as anticoagulant. Within 30 minutes of collection, the samples were centrifuged at approximately 2000 times g-force for 10 minutes at 4° C. to obtain blood plasma. The plasma samples were immediately divided into two aliquots (~75 μL each), transferred to a cryogenic vial, and stored in a freezer at −75+15° C. prior to analysis.
# Blood samples were collected at 0.083, 0.25, 0.5, 1, 2, 4, 8, and 24 h following the initial dosing (0 h).
# The concentration of Compound A in the blood plasma was determined through liquid chromatography-mass spectrometry (LC-MS). The experiments were conducted on a Shimadzu HPLC(DGU-20A5R; LC-30AD; SIL-30AC; Rack Changer II; CTO-30A; and CBM-20A) and AB API 5500 LC/MS/MS instrument with an Agilent Poroshell EC-C18 4 μm (50×2.1 mm) column. A gradient of 95% water (0.1% formic acid)/95% acetonitrile (0.1% formic acid) was used as the mobile phase. The sample injection volume was 4 μL, and the flow rate was 0.6 mL/min. The gathered data were used for pharmacokinetic calculations using T1/2, CO, AUClast, AUCinf, MRTinf, Cl, Vss, and Number of Points for Regression as parameters.
# The desired serial concentrations of working solutions were achieved by diluting stock solution of analyte with 50% acetonitrile in water solution. 5 μL of working solutions (5, 10, 20, 50, 100, 500, 1000, 5000, 10000 ng/ml) were added to 50 µL of the blank Beagle Dogs plasma to achieve calibration standards of 0.5~1000 ng/ml (0.5, 1, 2, 5, 10, 50, 100, 500, 1000 ng/ml) in a total volume of 55 μL. Five quality control samples at 1 ng/ml, 2 ng/mL, 5 ng/ml, 50 ng/mL and 800 ng/mL for plasma were prepared independently of those used for the calibration curves. These QC samples were prepared on the day of analysis in the same way as calibration standards.
# 55 μL standards, 55 μL QC samples and 55 μL unknown samples (50 μL plasma with 5 μL blank solution) were added to 200 μL of acetonitrile containing IS mixture (verapamil) for precipitating protein respectively. Then the samples were vortexed for 30 s. After centrifugation at 4° C., 3900 rpm for 15 min, the supernatant was diluted 3 times with water. 4 μL of diluted supernatant was injected into the LC/MS/MS system for quantitative analysis.
# [2] = system: BET BD2; test: Comparison with other BET inhibitors in development (EC50, selectivity, oral bioavailability; public information)
# [3] = system: idiopathic pulmonary fibrosis (bleomycin); test: Bleomycin IPF model: oxygen saturation (pulse oximetry); type: in vivo, C57BI/6J mice; conditions: for Oxygen saturation levels: Bleo mice
# Procedure: Male C57BI/6J mice, aged 12 weeks with an approximate weight of 25-30 g were obtained from Jackson Laboratories (Bar Harbor, ME). Animals were acclimated for two weeks prior to study initiation, and were randomized into the experimental groups outlined in Table 32.
# Intratracheal (IT) administration of Bleo or PBS control was conducted at the start of the study (Day 0). […] Animals were weighed on Day 0, and indexed boluses of PBS control (Group 1) or Bleo (Groups 2-6) were delivered by IT administration.
# Following administration of Bleo, animals (n=10/group) were included in the study if they met the following guidelines on Day 7: (1) a predictable 5% loss in body weight, and (2) the presence of fibrotic pulmonary lesions, detected by micro-CT imaging. 10 animals from Group 1 additionally proceeded as controls. Animals that continued in the study on Day 7 received an oral gavage (OG) administration of PBS, Compound A (1 mg/kg, 3 mg/kg, 10 mg/kg), or Pirfenidone (300 mg/kg), as outlined in Table 31 in 25 μL boluses every other day (QOD), starting on Day 7. Compound A was formulated in 5% (v/v) DMSO/15% (v/v) PEG 400/80% (v/v) E-TPGS in purified water.
# Body weights were obtained at Day 0 at the start of the study, and again at Day 7 to determine if an animal continued in the study. Body weight was measured daily from Day 7 until Day 21, and oxygen saturation was measured by a pulse oximetry (MouseOx) system QOD from Day 7 until study completion on Day 21, and results were plotted and analyzed by Kaplan-Meier plots.
# [4] = IV 1 mg/kg, HPBCD formulation, individual animals, 1 mg/kg
# [5] = IV 1 mg/kg, HPBCD formulation, mean
# [6] = beagle, dog, plasma, iv, 1 mg/kg, IV 1 mg/kg, HPBCD formulation, individual animals, read-out: Plasma concentration
# [7] = beagle, dog, plasma, iv, 1 mg/kg, IV 1 mg/kg, HPBCD formulation, mean, read-out: Average plasma concentration
# [8] = beagle, dog, plasma, iv, 1 mg/kg, IV 1 mg/kg, HPBCD formulation, mean
smiles,measurement,setting,value
"Cn1cc(-c2ccccc2)c(-c2cn(C)c(=O)c3[nH]c(-c4cnn(C(F)(F)F)c4)cc23)cc1=O [Compound A, 6-methyl-4-(1-methyl-2-oxo-5-phenyl-1,2-dihydropyridin-4-yl)-2-(1-(trifluoromethyl)-1H-pyrazol-4-yl)-1,6-dihydro-7H-pyrrolo[2,3-c]pyridin-7-one]","clinical observations, HPBCD vs propylene glycol formulation",[1]; IV,fewer clinical observations
same,AUClast,[1]; [4],4409 ng·h/mL and 1577 ng·h/mL and 1732 ng·h/mL
same,AUClast/D,[1]; [4],4409 (ng · h/mL)/(mg/kg) and 1577 (ng · h/mL)/(mg/kg) and 1732 (ng · h/mL)/(mg/kg)
same,AUClnf,[1]; [4],4854 ng·h/mL and 1674 ng·h/mL and 2083 ng·h/mL
same,AUC—%Extrap—obs,[1]; [4],9.17% and 5.83% and 16.8%
same,C0,[1]; [4],476 ng/mL and 410 ng/mL
same,CI_obs,[1]; [4],3.43 mL/min/kg and 9.95 mL/min/kg and 8.00 mL/min/kg
same,MRTlnf—obs,[1]; [4],9.30 h and 6.26 h and 11.8 h
same,T1/2,[1]; [4],6.45 h and 10.1 h
same,Vss—obs,[1]; [4],1.91 L/kg and 3.74 L/kg and 5.67 L/kg
same,AUClast/D,[1]; [5],2573 (ng · h/mL)/(mg/kg)
same,AUC—%Extrap—obs,[1]; [5],10.6%
same,CI_obs,[1]; [5],7.13 mL/min/kg
same,MRTlnf—obs,[1]; [5],9.1 h
same,concentration at 0.083 h,[1]; [6],479 ng/mL
same,concentration at 0.083 h,[1]; [7],446 ng/mL
same,concentration at 0.25 h,[1]; [6],540 ng/mL
same,concentration at 0.25 h,[1]; [7],450 ng/mL
same,concentration at 0.5 h,[1]; [6],405 ng/mL
same,concentration at 0.5 h,[1]; [7],328 ng/mL
same,concentration at 1 h,[1]; [6],331 ng/mL
same,concentration at 1 h,[1]; [7],269 ng/mL
same,concentration at 2 h,[1]; [6],323 ng/mL
same,concentration at 2 h,[1]; [7],232 ng/mL
same,concentration at 4 h,"[1]; beagle, dog, plasma, iv, 1 mg/kg, IV 1 mg/kg, HPBCD formulation, 4 h, mean",176 ng/mL
same,concentration at 8 h,"[1]; beagle, dog, plasma, iv, 1 mg/kg, IV 1 mg/kg, HPBCD formulation, 8 h, mean",100 ng/mL
same,concentration at 24 h,"[1]; beagle, dog, plasma, iv, 1 mg/kg, IV 1 mg/kg, HPBCD formulation, 24 h, mean",26 ng/mL
same,half-life,"[1]; beagle, dog, plasma, iv, 1 mg/kg, IV 1 mg/kg, HPBCD formulation, individual animals",7.11 h
same,C0,"[1]; beagle, dog, plasma, iv, 1 mg/kg, IV 1 mg/kg, HPBCD formulation, individual animals, read-out: C0",479 ng/mL
same,AUC,[1]; [8],2870 ng·h/mL
same,AUC(0-t),[1]; [8],2570 ng·h/mL
same,half-life,[1]; [8],7.9 h
same,C0,"[1]; beagle, dog, plasma, iv, 1 mg/kg, IV 1 mg/kg, HPBCD formulation, mean, read-out: C0",455 ng/mL
same,Vd,"[1]; beagle, dog, plasma, iv, 1 mg/kg, IV 1 mg/kg, HPBCD formulation, mean, read-out: Vss—obs",3.77 L/kg
same,selectivity relative to other BET inhibitors,[2]; same comparators,higher selectivity
same,EC50 relative to other BET inhibitors,"[2]; vs NUV-868, ABBV-744, GSK620, Pelabresib, ABBV-075, MK-8628/OTX-015, BI-894999",lower EC50
same,Recovery in oxygen saturation relative to IPF control group (Bleo+Saline),[3]; 3 mg/kg and 10 mg/kg,significant recovery in oxygen saturation levels
same,Mean Oxygen Saturation,"[3]; Bleo + Compound A (1 mg/kg) OG QOD from D7, Day 7",80.6
same,Mean Oxygen Saturation,"[3]; Bleo + Compound A (1 mg/kg) OG QOD from D7, Day 9",84.25
same,Mean Oxygen Saturation,"[3]; Bleo + Compound A (1 mg/kg) OG QOD from D7, Day 11",87.17
same,Mean Oxygen Saturation,"[3]; Bleo + Compound A (1 mg/kg) OG QOD from D7, Day 13",88.03
same,Mean Oxygen Saturation,"[3]; Bleo + Compound A (1 mg/kg) OG QOD from D7, Day 15",88.58
same,Mean Oxygen Saturation,"[3]; Bleo + Compound A (1 mg/kg) OG QOD from D7, Day 17",88.48
same,Mean Oxygen Saturation,"[3]; Bleo + Compound A (1 mg/kg) OG QOD from D7, Day 19",89.87
same,Mean Oxygen Saturation,"[3]; Bleo + Compound A (1 mg/kg) OG QOD from D7, Day 21",87.67
same,Mean Oxygen Saturation,"[3]; Bleo + Compound A (3 mg/kg) OG QOD from D7, Day 7",82.08
same,Mean Oxygen Saturation,"[3]; Bleo + Compound A (3 mg/kg) OG QOD from D7, Day 9",83.77
same,Mean Oxygen Saturation,"[3]; Bleo + Compound A (3 mg/kg) OG QOD from D7, Day 11",85.05
same,Mean Oxygen Saturation,"[3]; Bleo + Compound A (3 mg/kg) OG QOD from D7, Day 13",85.67
same,Mean Oxygen Saturation,"[3]; Bleo + Compound A (3 mg/kg) OG QOD from D7, Day 15",85.97
same,Mean Oxygen Saturation,"[3]; Bleo + Compound A (3 mg/kg) OG QOD from D7, Day 17",89.18
same,Mean Oxygen Saturation,"[3]; Bleo + Compound A (3 mg/kg) OG QOD from D7, Day 19",89.6
same,Mean Oxygen Saturation,"[3]; Bleo + Compound A (3 mg/kg) OG QOD from D7, Day 21",89.88
same,Mean Oxygen Saturation,"[3]; Bleo + Compound A (10 mg/kg) OG QOD from D7, Day 7",82.75
same,Mean Oxygen Saturation,"[3]; Bleo + Compound A (10 mg/kg) OG QOD from D7, Day 9",84.07
same,Mean Oxygen Saturation,"[3]; Bleo + Compound A (10 mg/kg) OG QOD from D7, Day 11",86.87
same,Mean Oxygen Saturation,"[3]; Bleo + Compound A (10 mg/kg) OG QOD from D7, Day 13",87.5
same,Mean Oxygen Saturation,"[3]; Bleo + Compound A (10 mg/kg) OG QOD from D7, Day 15",88.87
same,Mean Oxygen Saturation,"[3]; Bleo + Compound A (10 mg/kg) OG QOD from D7, Day 17",89.23
same,Mean Oxygen Saturation,"[3]; Bleo + Compound A (10 mg/kg) OG QOD from D7, Day 19",92.22
same,Mean Oxygen Saturation,"[3]; Bleo + Compound A (10 mg/kg) OG QOD from D7, Day 21",93.58
same,Oxygen saturation levels,"[3]; 3 mg/kg, Day 21",about 90%
same,Oxygen saturation levels,"[3]; 10 mg/kg, Day 21",about 93.6%
same,Improvement of oxygen saturation versus pirfenidone,[3]; IPF model,superior to pirfenidone in improving oxygen saturation

# Source: patent publication US20260217701A1, “SELECTIVE BET INHIBITORS AND USES THEREOF” (Tay Therapeutics Limited, priority 2022, published 2026)
